# Measured values as given in the supplement of paper PMC10307832.
# What was measured:
# Experiment in all cases: relative viability (nuclei count vs DMSO), 5 days (fraction); higher = more cells survive
# XMD14-99 = compound: CN1CCN(CC1)C2=CC(=C(C=C2)NC3=NC(=C(S3)C(=O)C4=C(C=CC=C4Cl)Cl)N)OC [XMD14-99]
# In short: (§1)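 Vehicle-anchored 1536-well plates of lung cancer cell lines, held overnight at 37 °C, were pinned with five library-drug doses (not always all listed) spaced by √10. No medium change followed over the next 5 days, after which the cells were fixed, permeabilised and Hoechst-stained together and imaged at 4×. Nuclei were counted with MetaXpress, and viability is treated-well nuclei over vehicle-well nuclei, taken as a median across plates. Plates passed with control CV below 25% and at least one doubling.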
# AZD1208 = compound: N[C@@H]1CCCN(c2c(/C=C3\SC(=O)NC3=O)cccc2-c2ccccc2)C1 [AZD1208]
# In short: as §1
# XMD14-99 + Navitoclax = compound: CN1CCN(CC1)C2=CC(=C(C=C2)NC3=NC(=C(S3)C(=O)C4=C(C=CC=C4Cl)Cl)N)OC [XMD14-99] + CC1(C)CCC(c2ccc(Cl)cc2)=C(CN2CCN(c3ccc(C(=O)NS(=O)(=O)c4ccc(N[C@H](CCN5CCOCC5)CSc5ccccc5)c(S(=O)(=O)C(F)(F)F)c4)cc3)CC2)C1 [Navitoclax] (partner 0.5 µM)
# In short: (§2)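 One day after seeding in 1536-well plates, lung cancer cell lines were dosed by pin tool. Dosing was either single-drug or a fixed anchor-drug dose plus five library-drug doses (not always all listed) in √10 steps. After 5 days, nuclei were stained in one fix-and-stain step and counted on 4× images, and relative viability is the nuclei count of treated wells over that of vehicle wells, given as the median of duplicate plates.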
# AZD1208 + Tozasertib = compound: N[C@@H]1CCCN(c2c(/C=C3\SC(=O)NC3=O)cccc2-c2ccccc2)C1 [AZD1208] + Cc1cc(Nc2cc(N3CCN(C)CC3)nc(Sc3ccc(NC(=O)C4CC4)cc3)n2)n[nH]1 [Tozasertib] (partner 0.1 µM)
# In short: as §2
cell line,measurement,setting,value
UMC-11,relative viability,XMD14-99; 0.08 µM,0.968
same,relative viability,XMD14-99; 0.8 µM,1.02
same,relative viability,XMD14-99; 2.53 µM,1
same,relative viability,XMD14-99; 8 µM,0.83
same,relative viability,AZD1208; 0.08 µM,0.85
same,relative viability,AZD1208; 0.253 µM,0.851
same,relative viability,AZD1208; 0.8 µM,0.713
same,relative viability,AZD1208; 2.53 µM,0.67
same,relative viability,AZD1208; 8 µM,0.511
same,relative viability,XMD14-99 + Navitoclax; first compound 0.08 µM,0.308
same,relative viability,XMD14-99 + Navitoclax; first compound 0.8 µM,0.33
same,relative viability,XMD14-99 + Navitoclax; first compound 2.53 µM,0.343
same,relative viability,XMD14-99 + Navitoclax; first compound 8 µM,0.317
same,relative viability,AZD1208 + Tozasertib; first compound 0.08 µM,0.204
same,relative viability,AZD1208 + Tozasertib; first compound 0.253 µM,0.205
same,relative viability,AZD1208 + Tozasertib; first compound 0.8 µM,0.211
same,relative viability,AZD1208 + Tozasertib; first compound 2.53 µM,0.207
same,relative viability,AZD1208 + Tozasertib; first compound 8 µM,0.21
